From publication PMC9629815, “MK256 is a novel CDK8 inhibitor with potent antitumor activity in AML through downregulation of the STAT pathway” (Oncotarget, 2022)

Legend:
CYP3A4-TS = CYP3A4-TS (Homo sapiens, UniProt P08684); assay: Cytochrome P450 inhibition assay; type: in vitro ADME; settings: 50 uM
MDR1 = assay: MDCK-MDR1 permeability assay; type: in vitro ADME; settings: dog, MDCK-MDR1, read-out: Efflux Ratio (B-A/A-B)
Protocol: (§1) MDCK-MDR1 cells were plated into 96-well Millipore Millicell-96 plates at 7,500 cells/75 μL/well and incubated for three days at 37°C with 5% CO2. Cells were washed with Hank’s Balanced Salt Solution (HBSS) with 5 mM HEPES for 30 minutes before the experiment began. MK256 was prepared by diluting DMSO stock into HBSS buffer, resulting in a final DMSO concentration of 0.1%. Prior to the experiment, cell monolayer integrity was verified by […] electrical resistance (TEER). The transport experiment was initiated by adding MK256 to the apical (75 μL) or basal (250 μL) side. Transport plates were incubated at 37°C in a humidified incubator with 5% CO2. Samples were taken from the donor and acceptor compartments after one hour and analyzed by liquid chromatography with tandem mass spectrometry (LC/MS/MS). Digoxin was used as reference control. Apparent permeability (Papp) values were calculated using the following equation: Papp = (dQ/dt)/A/C0, where dQ/dt is the initial rate of amount of test compound transported across the cell monolayer, A is the surface area of the filter membrane, and C0 is the initial concentration of the test compound, calculated for each direction using a 4-point calibration curve by LC/MS/MS. Net flux ratio between the two directional transports was calculated by the following equation: Ratio = Papp, B-A/Papp, A-B, where Papp, B-A and Papp, A-B represent the apparent permeability of test compound from the basal-to-apical and apical-to-basal side of the cellular monolayer, respectively. Recovery was calculated based on the compound concentration at the end of the experiment, compared to that at the beginning of the experiment, adjusted for volumes.

[1] = MDCK-MDR1 permeability assay; type: in vitro ADME; settings: dog, MDCK-MDR1
Protocol: as §1

MDCK-MDR1 cells = assay: MDCK-MDR1 permeability assay; type: in vitro ADME; settings: 5 μM
Protocol: as §1

CYP3A4-MDZ = CYP3A4-MDZ (Homo sapiens, UniProt P08684); assay: Cytochrome P450 inhibition assay; type: in vitro ADME; settings: 50 uM
Chain of CYP3A4-MDZ (P08684 whole entry): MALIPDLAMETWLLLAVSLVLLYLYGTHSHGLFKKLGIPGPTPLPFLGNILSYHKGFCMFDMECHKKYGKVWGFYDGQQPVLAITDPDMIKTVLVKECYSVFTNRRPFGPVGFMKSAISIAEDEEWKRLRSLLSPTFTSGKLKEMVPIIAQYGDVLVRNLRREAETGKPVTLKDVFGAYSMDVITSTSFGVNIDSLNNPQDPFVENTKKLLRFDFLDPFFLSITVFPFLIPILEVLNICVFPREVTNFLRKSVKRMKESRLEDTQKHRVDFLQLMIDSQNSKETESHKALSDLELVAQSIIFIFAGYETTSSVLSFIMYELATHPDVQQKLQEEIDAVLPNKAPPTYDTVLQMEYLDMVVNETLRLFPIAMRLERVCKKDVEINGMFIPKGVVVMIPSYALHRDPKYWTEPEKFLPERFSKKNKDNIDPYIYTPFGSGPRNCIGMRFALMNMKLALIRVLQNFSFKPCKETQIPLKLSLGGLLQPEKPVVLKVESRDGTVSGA

In vivo mouse PK study = assay: In vivo mouse PK study; design: species or system mice; settings: plasma
Protocol: Mice were dosed with either 1 mg/ml (IV) at a dose of 3 mg/kg or 3 mg/ml (PO) at a dose of 30 mg/kg in 40% PEG400 + 60% (30% Solutol) (final pH ~ 7). Blood samples were drawn at 5 mins, 15 mins, 30 mins, 1 hr, 2 hrs, 4 hrs, 8 hrs, and 24 hs from mice dosed with the IV route and at 1 hr, 4 hrs, 8 hrs and 24 hrs from mice dosed orally. An aliquot of 30 μL of plasma was extracted with 100 μL of 5:95 methanol:acetonitrile containing internal standard (Verapamil). The mixture was vortexed on a shaker for 15 minutes and subsequently centrifuged at 4000 rpm for 15 minutes. An aliquot of 70 μL of the supernatant was mixed with 70 μL water with 0.1% formic acid for the injection to the LC/MS/MS. Calibration standards were prepared by spiking MK256 into the blank mouse plasma. All samples are analyzed on LC/MS/MS using an AB Sciex API 4000 instrument, coupled to a Shimadzu LC-20AD LC Pump system.

MCL-1 mRNA in KG-1 cells = assay: Real-time RT-PCR of MCL-1 mRNA; type: cell-based
Protocol: (§2) Total RNA from the various cell lines was isolated using the RNeasy extraction method (Qiagen, Valencia, CA, USA). First-strand cDNA was synthesized from total RNA by iScript cDNA synthesis (Bio-Rad, Hercules, CA, USA) according to the manufacturer’s instructions. Taqman RT–PCR analysis was performed on cDNA in a 384-well plate, using a Prism 7900HT Real-Time PCR System (Applied Biosystems, Foster City, CA, USA). Primers and Taqman probes were purchased from Applied Biosystems. The expression of target genes MCL1 (Hs03043899_m1, Thermo fisher) and CCL2 (Hs00234140_m1, Thermo fisher) in each sample was assayed in triplicate and normalized to human GUSB for mRNA expression analysis. An unpaired t test was used to calculate statistical significance.

[2] = test system: MCL-1 mRNA in MOLM-14 cells; assay: Real-time RT-PCR of MCL-1 mRNA; type: cell-based
Protocol: as §2

[3] = Hepatocyte stability assay; type: in vitro ADME, Human
Protocol: Human LiverPoolTM 20-donor, dog and mouse cryopreserved hepatocytes were obtained from BioreclamationIVT. Cryopreserved hepatocytes were removed from the liquid nitrogen tank and thawed in a 37°C water bath. As soon as the cells pulled away from the vial wall, they were decanted into 48 ml of warm HT medium. Cells were centrifuged for four minutes at 420 rpm (50 g). After the supernatant was removed, the pellet was re-suspended in warm DMEM medium. Cell density was counted by a hemacytometer. The assay was carried out in 96-well microtiter plates. MK256 was incubated for 0, 60, 120, and 180 minutes at 37°C with hepatocytes. Reaction mixtures (50 μL) contained a final concentration of 1 μM MK256, 0.5 million cells/mL hepatocytes in the DMEM medium. At each time point (for example, 0, 1, 2, and 3 hrs), 200 μL of quench solution (100% acetonitrile with 0.1% formic acid) with internal standard were transferred to each well. […] All samples were analyzed on LC/MS/MS using an AB Sciex API 4000 instrument, coupled to a Shimadzu LC-20AD LC Pump system. […] The extent of metabolism was calculated as the disappearance of the test compound, compared to the 0-min control reaction incubations. Initial rates were calculated for the compound concentration and used to determine t1/2 values and subsequently, the intrinsic clearance, CLint = (0.693)(1/t1/2 (min))(mL incubation/million cells).

[4] = IV 3 mg/kg or PO 30 mg/kg study, footnote 2 not given

Chain of CYP3A4-TS (P08684 whole entry): as above

Nc1nccc2c(Br)cc3cc(C(=O)O)ccc3c12 [MK256]
cytochrome P450 inhibition (CYP3A4-TS): no inhibition | efflux ratio at 1 h, 5 µM (MDR1): 0.2 | Papp A→B at 1 h, 5 μM [1]: 57 ×10⁻⁶ cm/s | Papp B→A at 1 h, 5 μM [1]: 14 ×10⁻⁶ cm/s | Recover rate (%) (MDCK-MDR1 cells): 96% | cytochrome P450 inhibition (CYP3A4-MDZ): no inhibition | AUC(0-t) (In vivo mouse PK study; [4]): 330 µM·h | Cmax (In vivo mouse PK study; [4]): 29 µM | half-life (In vivo mouse PK study; [4]): 3.6 h | bioavailability (In vivo mouse PK study; PO 30 mg/kg vs IV 3 mg/kg): 59% | clearance (In vivo mouse PK study; intravenous, 3 mg/kg): 2.83 mL/min/kg | Vd (In vivo mouse PK study; intravenous, 3 mg/kg, read-out: Vss): 0.49 L/kg | mRNA level decreased to (MCL-1 mRNA in KG-1 cells; 300 nM): 25% | mRNA level decreased to (MCL-1 mRNA in KG-1 cells; 1 uM): 30% | MCL-1 mRNA level ([2]; 300 nM): barely changed | MCL-1 mRNA level downregulated by ([2]; 1 uM): ~ 30% | Clint (μL·min^−1·mg protein^−1) ([3]; Human hepatocytes): 16 μL·min^−1·mg protein^−1 | half-life at 1 µM ([3]; human, cryopreserved human hepatocytes (LiverPool 20-donor), read-out: T½): 1.48 h
